According to patent USRE45173E1, “Inhibitors of CYP 17” (Novartis AG, priority 2009, dated 2014):

Tests used:
[1] = target: recombinant human CYP17 enzyme (Homo sapiens (Human), UniProt P05093); test: Cytochrome P450, 17-20 lyase (CYP17-lyase) assay, tritiated acetic acid release from 17-α-hydroxy pregnenolone [21-3H]; assay type: biochemical; conditions: human CYP17, substrate 0.25 μM; read-out: Lyase IC 50 nM Human/Rat (Human)
In short: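 Membranes of cells expressing human CYP17 incubated 90 min at room temperature with [21-3H]17α-hydroxypregnenolone and 4.2 mM NADPH in 50 mM phosphate pH 7.5. Released tritiated acetic acid separated from steroids by charcoal and counted by scintillation; IC50 from sigmoidal fit of % inhibition.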

rat CYP17 lyase = rat CYP17 lyase (Rattus norvegicus (Rat), UniProt P11715); test: rat CYP 17 Lyase model, rat testes microsomes as the source; assay type: biochemical; conditions: for inhibition at 0.1 µM: 100 nM compound, read-out: rCYP17 Lyase % Inh @ 100 nM; for IC50: rat testes microsomes, substrate 0.5 μM, read-out: Lyase IC 50 nM Human/Rat (Rat)
rat CYP17 lyase, sequence (P11715 whole entry): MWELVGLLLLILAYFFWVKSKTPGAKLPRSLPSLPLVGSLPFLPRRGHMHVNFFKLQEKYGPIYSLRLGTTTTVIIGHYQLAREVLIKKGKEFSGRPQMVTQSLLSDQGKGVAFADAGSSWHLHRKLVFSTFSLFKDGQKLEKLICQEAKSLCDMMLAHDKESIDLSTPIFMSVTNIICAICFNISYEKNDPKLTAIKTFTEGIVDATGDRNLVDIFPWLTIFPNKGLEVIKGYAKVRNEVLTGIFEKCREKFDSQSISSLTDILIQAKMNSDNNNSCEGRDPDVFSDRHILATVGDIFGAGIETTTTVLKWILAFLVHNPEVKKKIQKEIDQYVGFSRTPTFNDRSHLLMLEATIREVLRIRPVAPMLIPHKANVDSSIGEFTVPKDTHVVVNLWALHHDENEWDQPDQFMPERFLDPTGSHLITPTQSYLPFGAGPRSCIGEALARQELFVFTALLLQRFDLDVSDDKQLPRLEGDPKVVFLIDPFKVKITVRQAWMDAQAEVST
Method: For routine screening, the assay was set up with 16 μg of enzyme in 50 μL reaction volume. 17α-hydroxy pregnenolone [21-3H] was added to a final concentration of 0.25 μM. NADPH is used at a final concentration of 4.2 mM. Total reaction volume was made up to 50 μL with 50 mM Phosphate buffer pH 7.5. The reaction mixture was incubated at room temperature for 90 minutes with gentle shaking. The reaction was stopped by the addition of 100 μL of buffer. 500 μL of 5% freshly prepared activated charcoal was added to the solution and mixed well by vortexing. The samples were centrifuged at 17568×g for 5 minutes. (14000 rpm). The supernatant was carefully transferred to fresh tube and 1.3 mL of scintillation fluid was added, mixed by vortexing.
The radioactivity was measured in a 1450 MicroBeta TriLux™ scintillation counter from Wallac-Perkin Elmer®, USA. The measurements were carried out in 2.0 mL Eppendorforf™ tubes. Each tube was counted for 1 minute. The amount of tritiated acetic acid released is proportional to the lyase activity. Percent lyase activity in presence of inhibitor was calculated using the formula given below.
[formula] • Sample: Enzyme reaction in presence of inhibitor. • Positive control: Enzyme reaction without inhibitor but containing DMSO at 1% final concentration. • Blank-Contains all reagents except enzyme. % Inhibition=100%−% Lyase activity
For IC50 determination, the % inhibition was plotted as a function of inhibitor concentration. The data was fitted to sigmoidal equation using Graphpad Prism® software IV to generate IC50 values.
For the rat CYP 17 Lyase Model:
The same procedure described above was used but using rat testes microsomes as the source and with a substrate concentration of 0.5 μM.

recombinant human CYP17 enzyme, sequence (P05093 whole entry): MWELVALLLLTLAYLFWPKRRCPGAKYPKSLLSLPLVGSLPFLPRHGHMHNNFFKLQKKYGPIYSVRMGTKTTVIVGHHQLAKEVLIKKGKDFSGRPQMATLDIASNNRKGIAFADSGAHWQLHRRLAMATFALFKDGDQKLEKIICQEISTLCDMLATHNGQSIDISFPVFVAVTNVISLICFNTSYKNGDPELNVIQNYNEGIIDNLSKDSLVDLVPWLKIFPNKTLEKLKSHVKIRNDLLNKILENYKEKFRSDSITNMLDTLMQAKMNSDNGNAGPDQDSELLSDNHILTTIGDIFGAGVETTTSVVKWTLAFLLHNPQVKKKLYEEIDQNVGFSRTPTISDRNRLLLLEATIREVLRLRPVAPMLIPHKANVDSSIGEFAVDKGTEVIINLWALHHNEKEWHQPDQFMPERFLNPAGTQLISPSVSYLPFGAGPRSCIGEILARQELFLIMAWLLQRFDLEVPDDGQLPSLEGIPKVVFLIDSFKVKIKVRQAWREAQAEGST

Row | SMILES | IC50 [1] [nM] | inhibition at 0.1 µM (rat CYP17 lyase) [%] | IC50 (rat CYP17 lyase) [nM]
1 | Cc1ccncc1N1CCN(c2ccc3occ(C)c3c2)C1=O [Example 29A, 1-(3-Methyl-benzofuran-5-yl)-3-(4-methyl-pyridin-3-yl)-imidazolidin-2-one] | 3 | 98 | –
2 | Cc1ccncc1N1CCN(c2ccsc2)C1=O [Example 31A, 1-(4-Methyl-pyridin-3-yl)-3-thiophen-3-yl-imidazolidin-2-one] | 108 | 74 | –
3 | Cc1ccncc1N1CCN(c2ccc(Cl)s2)C1=O [Example 41A, 1-(5-Chloro-thiophen-2-yl)-3-(4-methyl-pyridin-3-yl)-imidazolidin-2-one] | 10 | – | 3
4 | COc1cc(N2CCN(c3cnccc3C)C2=O)ccn1 [Example 72A, 1-(2-Methoxy-pyridin-4-yl)-3-(4-methyl-pyridin-3-yl)-imidazolidin-2-one] | 9.4 | – | 10
5 | Cc1ccncc1N1CCN(c2ccc3c(C)n[nH]c3c2)C1=O [Example 102A, 1-(3-Methyl-1H-indazol-6-yl)-3-(4-methyl-pyridin-3-yl)-imidazolidin-2-one] | 7.5 | – | 5

Results, then the compound that gave them:

Row | IC50 [1] [nM] | inhibition at 0.1 µM (rat CYP17 lyase) [%] | IC50 (rat CYP17 lyase) [nM] | SMILES
6 | 4 | 61 | 52 | Cc1ccncc1N1CCN(c2ccc3[nH]ncc3c2)C1=O [Example 28A, 1-(1H-Indazol-5-yl)-3-(4-methyl-pyridin-3-yl)-imidazolidin-2-one]
7 | 96 | 97 | 5 | Cc1ccncc1N1CCN(c2ccc3ncccc3c2)C1=O [Example 52A, 1-(4-Methyl-pyridin-3-yl)-3-quinolin-6-yl-imidazolidin-2-one]
8 | 9 | – | 7 | Cc1cccc(N2CCN(c3cnccc3C)C2=O)c1 [Example 55A, 1-(4-Methyl-pyridin-3-yl)-3-m-tolyl-imidazolidin-2-one]
9 | 6.5 | – | 2 | Cc1ccncc1N1CCN(c2cccc(C(F)(F)F)c2)C1=O [Example 70A, 1-(4-Methyl-pyridin-3-yl)-3-(3-trifluoromethyl-phenyl)-imidazolidin-2-One]
10 | 23 | – | 12 | COc1ccncc1N1CCN(c2ccc3ncsc3c2)C1=O [Example 124A, 1-Benzothiazol-6-yl-3-(4-methoxy-pyridin-3-yl)-imidazolidin-2-one]
